Each structure is given as a SMILES string.

This is an account of results in paper PMC4139942 (Scientific Reports, 2014).

The target of test [1] is amylin aggregates (Homo sapiens, UniProt P10997). The format is binding.
In test [2] the target is AD brain samples. The note with it: cited from earlier work.

Chain of amylin aggregates (P10997 34-70): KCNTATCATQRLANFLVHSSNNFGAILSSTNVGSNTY

In the case of `CNc1ccc(/C=C/c2ccc(OCCOCCOCCF)nc2)cc1` [AV-45, (E)-4-(2-(6-(2-(2-(2-fluoroethoxy)ethoxy)ethoxy)pyridin-3-yl)vinyl)-N-methylaniline], the Ki was 501 ± 40.8 nM in test [1] and 6.7 nM in test [2].
